Measurements reported in patent publication US11053205B2, “Phenazine derivatives as antimicrobial agents” (University of Florida Research Foundation, Incorporated, priority 2017, dated 2021).
In brackets after ≈: the same amount, converted by molar mass. Read-outs that look alike come from different tables or passages of the source. Marks after values point to notes of the source that are not given here.

Legend:
[1] = tested on: MRSE 35984; assay: MIC, broth microdilution (CLSI); details: for MRSE 35984 MIC: 16 to 18 hours at 37° C.
[2] = tested on: MRSA BAA-1707 biofilms; assay: Calgary Biofilm Device (CBD) assay, MBC/MBEC; details: for MRSA BAA-1707 MBEC / MRSA BAA-1707 MBC: CBD; for MRSA BAA-1707 MBEC: biofilm eradication; for MRSA BAA-1707 MBC: planktonic killing
[3] = tested on: MRSA BAA-1707; assay: MIC, broth microdilution (CLSI); details: 16 to 18 hours at 37° C.; 0.10 = lowest concentration tested
[4] = tested on: VRE 700221; assay: MIC, broth microdilution (CLSI); details: for VRE 700221 MIC: 16 to 18 hours at 37° C.
[5] = tested on: MRSE 35984 biofilms; assay: Calgary Biofilm Device (CBD) assay, MBC/MBEC; details: CBD; for MRSE 35984 MBEC: biofilm eradication; for MRSE 35984 MBC: planktonic killing
[6] = tested on: human red blood cells
[7] = tested on: HeLa cells
[8] = tested on: VRE 700221 biofilms; assay: Calgary Biofilm Device (CBD) assay, MBC/MBEC; details: CBD; for VRE 700221 MBEC: biofilm eradication; for VRE 700221 MBC: planktonic killing
[9] = tested on: MRSA-2 biofilms; assay: Calgary Biofilm Device (CBD) assay, MBC/MBEC; details: for MRSA-2 MBEC: biofilm eradication; for MBC: Staphylococcus aureus, MRSA, read-out: MRSA-2 MBC

Compound	MRSE 35984 MIC [1]	MRSA BAA-1707 MIC [3]	VRE 700221 MIC [4]	MRSE 35984 MBEC [5]	MRSE 35984 MBC [5]	Hemolysis at 200 μM [6]	also measured
CCCc1ccc2nc3c(O)c(Br)cc(Br)c3nc2c1 [Compound 54A]	0.15^a μM	0.1^b μM	3.13 µM	37.5 µM	25 µM	2.1%	MRSA BAA-1707 MBEC [2]: 75 µM; MRSA BAA-1707 MBC [2]: 37.5 µM
Cc1ccc2nc3c(Br)cc(Br)c(O)c3nc2c1C [Compound 57A]	>100 µM	>100 ^ μM	>100 µM	–	–	–	–
CCc1cccc2nc3c(Br)cc(Br)c(O)c3nc12 [Compound 58A]	>100 µM	>100 ^ μM	>100 µM	–	–	–	–
Cc1cc2nc3c(O)c(Br)cc(Br)c3nc2c(C)c1C [Compound 59A]	0.1^b μM	0.59^a μM	–	5 µM	25 µM	1.3%	MRSA BAA-1707 MBEC [2]: 75 µM; MRSA BAA-1707 MBC [2]: 150 µM
CCOc1ccc2nc3c(O)c(Br)cc(Br)c3nc2c1 [Compound 60A]	18.8^a μM	>100 ^ μM	>100 µM	–	–	–	–
CCOC(=O)c1ccc2nc3c(O)c(Br)cc(Br)c3nc2c1 [Compound 62A]	–	–	2.35^a μM	–	–	–	–
CCCc1cn(Cc2ccc3nc4c(OC(C)=O)c(Br)cc(Br)c4nc3c2)nn1 [Compound 74A]	–	100 ^ μM	>100 µM	–	–	–	–
COCCOCCOCC(=O)Oc1c(Br)cc(Br)c2nc3ccccc3nc12 [Compound 75A]	–	0.59^a μM	3.13 µM	37.5 µM	9.38 µM	1.2%	MRSA BAA-1707 MBEC [2]: 75 µM; MRSA BAA-1707 MBC [2]: 18.8 µM; IC50 [7]: > 100 µM
COCCOCCOCCOCCOC(=O)Oc1c(Br)cc(Br)c2nc3cc(Cl)ccc3nc12 [Compound 77A]	0.1^b μM	0.0005^a μM	0.1^b μM	18.8 µM	9.38 µM	1.1%	IC50 [7]: > 100 µM
COCCOCCOCCOCCOC(=O)Oc1c(Br)cc(Br)c2nc3cc(Oc4ccccc4)ccc3nc12 [Compound 78A]	0.1^b μM	0.1^b μM	0.3^a μM	–	–	≤1%	MRSA BAA-1707 MBEC [2]: 4.69 µM; MRSA BAA-1707 MBC [2]: 18.8 µM
OC[C@H]1O[C@@H](Oc2c(Br)cc(Br)c3nc4ccccc4nc23)[C@H](O)[C@@H](O)[C@@H]1O [Compound 79A]	–	–	–	–	–	≤1%	–
COCCOCCOCCOC(=O)OCOc1c(Br)cc(Br)c2nc3ccccc3nc12 [Compound 80A]	>100 µM	>100 µM	>100 µM	–	–	1.4%	–
O=C(OCCOCCOCCOCCO)OCOc1c(Br)cc(Br)c2nc3ccccc3nc12 [Compound 82A]	>100 µM	>100 µM	>100 µM	–	–	2.7%	IC50 [7]: > 100 µM
O=C(OCCSSCCOC(=O)c1ccccc1)OCOc1c(Br)cc(Br)c2nc3ccccc3nc12 [Compound 85A]	>100 µM	>100 µM	>100 µM	–	–	1.3%	IC50 [7]: > 100 µM
CC1=C(C)C(=O)C(COC(=O)OCOc2c(Br)cc(Br)c3nc4ccccc4nc23)=C(C)C1=O [Compound 86A]	2.35^a μM	2.35^a μM	9.38^a μM	150 µM	37.5 µM	≤1%	MRSA BAA-1707 MBC [2]: 25 µM; VRE 700221 MBEC [8]: 9.38 µM; VRE 700221 MBC [8]: 12.5 µM
CC1=C(C)C(=O)C(COC(=O)OCOc2c(Br)cc(Br)c3nc4cc(Cl)ccc4nc23)=C(C)C1=O [Compound 87A]	–	0.15^a μM	1.56 µM	25 µM	12.5 µM	–	MRSA BAA-1707 MBC [2]: 6.25 µM; VRE 700221 MBEC [8]: 3.13^c/3.13^c μM; VRE 700221 MBC [8]: 3.13^c/3.13^c μM
C[C@H]1c2cccc(O)c2C(=O)C2=C(O)[C@]3(O)C(=O)C(C(N)=O)=C(O)[C@@H](N(C)C)[C@@H]3[C@@H](O)[C@@H]21 [Doxycycline]	–	–	–	–	–	–	MRSA-2 MBEC ([9]; CBD): 46.9 µM; MBC [9]: 2 µM (≈ 0.889 µg/mL)
Cc1ccc2nc3c(O)c(Br)cc(Br)c3nc2c1C [HP 1-19]	–	–	–	–	–	–	MIC ([1]; Staphylococcus epidermidis, MRSE, read-out: MRSE 35984 MIC, 16 to 18 hours at 37° C.): 0.3 µM (≈ 0.115 µg/mL); MIC ([4]; Enterococcus, VRE, read-out: VRE 700221 MIC, 16 to 18 hours at 37° C.): 0.15 µM (≈ 0.0573 µg/mL); Hemolysis at 200 μM ([6]; human, 1 h, 200 μM, pH 7.2): 5.3%
CC(=O)N[C@@H](CS)C(=O)O [NAC, reference compound]	–	–	–	>2000/>2000 μM	>2000/>2000 μM	–	MRSA-2 MBEC ([9]; CBD): >2000/>2000 μM; MRSA-2 MBC ([9]; CBD, planktonic killing): >2000/>2000 μM; VRE 700221 MBEC [8]: >2000 />2000 μM; VRE 700221 MBC [8]: >2000 />2000 μM
NC(=O)c1cnccn1 [Pyrazinamide]	–	–	–	–	–	–	MRSA-2 MBEC ([9]; CBD): >2000/>2000 μM; MBC [9]: > 2000 µM
CCCc1cn(Cc2ccc3nc4c(OC(C)=O)c(Br)cc(Br)c4nc3c2)nn1 [compound 74]	18.8 µM	–	–	–	–	–	–
CC(=O)NC[C@H]1CN(c2ccc(N3CCOCC3)c(F)c2)C(=O)O1 [linezolid, reference compound]	–	12.5 ^ μM	–	–	–	–	MBC ([2]; Staphylococcus aureus, read-out: MRSA BAA-1707 MBC): 31.3 µM (≈ 10.6 µg/mL); biofilm eradication activities against MRSA biofilms ([2]; at 2,000 μM (highest concentration tested)): no biofilm eradication activities; Hemolysis at 200 μM ([6]; human, 1 h, 200 μM, pH 7.2): ≤1%
